Data published in patent publication US9540337B2, “Gamma-glutamyl transpeptidase inhibitors and methods of use” (The Board of Regents of the University of Oklahoma, priority 2012, dated 2017).

Experiments:
[1] = system: human GGT in NIH3T3^GGT cells; test: Catabolism of extracellular GSH by NIH3T3 cells transfected with human GGT; type: cell-based; conditions: Compound 6 100 μM, 20 μM GSH, one hour; 60 min
Experimental: (§1) Cell Lines: 786-0 cells (ATCC CRL-1932), a human renal adenocarcinoma cell line, were grown in Dulbecco's Modified Eagle's Medium (DMEM) supplemented with 10% fetal bovine serum (FBS) and penicillin/streptomycin (50 units/ml, 50 μg/ml). NIH3T3 cells (ATCC CRL 1658) which are GGT-negative and NIH3T3 cells expressing hGGT [described previously were grown in DMEM/F12 media supplemented with 5% FBS and 0.2 mg/ml G418.
(§2) Catabolism of Extracellular GSH: 786-O and NIH3T3 cells were plated in 96-well plates at a density of 5×10^3 cells/well. After 24 hours, the media was changed to 100 μl cysteine-free DMEM/F12 supplemented with either 20 μM GSH or 20 μM GSH and 100 μM compound 6. After one hour, 50 μl of media was removed and immediately acidified with 5 μl ice-cold 43.1% 5-sulfosalicylic acid. After 10 minutes on ice, the solution was neutralized with 15 μl of 1 M NaOH. The GSH concentration was determined by the method of Tietze.

786-0 cells = test: Cytotoxicity in dividing 786-O cells (MTT assay, 72 hours); type: cell-based, human
Experimental: as §1
(§3) Cytotoxicity Assays: 786-0 cells were plated at 10^3 cells/well in a 96-well plate in DMEM supplemented with 10% FBS and penicillin/streptomycin (50 units/ml, 50 μg/ml). After 24 hours, the media was changed to fresh media containing OU749 analogs. A 100 mM stock of OU749 and each of its analogs were made in DMSO then diluted in DMEM. Control wells were treated with equivalent concentrations of DMSO. Cell viability was determined 72 hours after the addition of the inhibitors by the MTT assay. For the toxicity of the OU749 and its analogs in 786-0 cells, all determinations were done in triplicate. The LD50 of each compound and the standard deviation (S.D.) were calculated with a Prism log (inhibitor) versus normalized response (variable slope) curve fit (Prism, GraphPad Software Inc., San Diego, Calif.).

[2] = as above; type: cell-based, human; conditions: human, 786-o cells, dividing 786-O cells, 72 hours; read-out: LD50
Experimental: as §1, §3

hGGT = target: T1, hGGT (Homo sapiens, UniProt P19440); test: L-Glutamate Release Assay (Hydrolysis of GSH); type: biochemical
T1 construct: lacking the transmembrane domain; made in house; host or cells: Pichia pastoris
T1 sequence (P19440 381-569 limits assumed): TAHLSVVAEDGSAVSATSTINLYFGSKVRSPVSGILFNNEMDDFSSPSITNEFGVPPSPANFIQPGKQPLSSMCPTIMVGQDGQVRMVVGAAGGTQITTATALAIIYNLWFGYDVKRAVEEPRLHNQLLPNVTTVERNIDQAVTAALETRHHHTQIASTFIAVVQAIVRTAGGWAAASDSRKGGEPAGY
T1 sequence (P19440 27-380 limits assumed): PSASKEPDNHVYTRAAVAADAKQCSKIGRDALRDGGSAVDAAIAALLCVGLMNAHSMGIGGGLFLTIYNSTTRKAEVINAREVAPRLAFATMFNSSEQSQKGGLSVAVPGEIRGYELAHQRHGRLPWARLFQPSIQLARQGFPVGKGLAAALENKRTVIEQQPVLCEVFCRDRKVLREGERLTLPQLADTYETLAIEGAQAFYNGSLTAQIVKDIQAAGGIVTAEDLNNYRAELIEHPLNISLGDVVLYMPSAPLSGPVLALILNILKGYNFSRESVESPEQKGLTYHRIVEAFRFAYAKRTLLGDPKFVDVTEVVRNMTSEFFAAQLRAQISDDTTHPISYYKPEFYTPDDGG
Experimental: L-Glutamate Release Assay (Hydrolysis of GSH): This assay measures the production of glutamate from the hydrolysis of GSH by GGT enzyme and has been described in detail previously. The concentration of the substrate, GSH, was varied from 5 μM to 20 μM. The concentration of the inhibitors, OU749 and its analogs, were varied from 15.6 μM to 250 μM. The reaction was initiated with the addition of 10 mU hGGT. […] All compounds were also evaluated as inhibitors of glutamate dehydrogenase, the enzyme in the second half of the L-glutamate release assay. None of the compounds in this study inhibited glutamate dehydrogenase.

Human GGT1 (hGGT) [3] = target: T2, Human GGT1 (hGGT) (Homo sapiens, UniProt P19440); test: D-GpNA Hydrolysis Assay (release of pNA, 405 nm, pH 7.4)
T2 sequence (P19440 381-569 limits assumed): as the sequence (P19440 381-569 limits assumed) above
T2 sequence (P19440 27-380 limits assumed): as the sequence (P19440 27-380 limits assumed) above
Experimental: (§4) Enzyme Isolation: Human GGT1 (P19440), lacking the transmembrane domain, was expressed in Pichia pastoris and isolated as previously described (14). […] One unit of GGT activity was defined as the amount of enzyme that released 1 μmol of paranitroaniline/min at 37° C. at pH 7.4 in the transpeptidation reaction.
The reaction was initiated with the addition of 19 mU GGT. The reaction was incubated at 37° C. and monitored continuously at 405 nm by a Bio-Rad model 680 microplate reader with Microplate Manager 5.2 software (Bio-Rad, Hercules, Calif.).
Data Analysis: Samples in each experiment were run in triplicate. Each inhibitor was evaluated in two or more independent experiments. Double reciprocal plots were generated to assess data quality and determine the correct rate equation for data fitting. Data were fitted using the proper rate equation and the Marquardt-Levenberg algorithm supplied with the Enzfitter program (BIOSOFT, Cambridge, UK). Kinetic parameters with standard errors were estimated using a simple weighting method.
Data adhering to Michaelis-Menten Kinetics were fitted to eq. 1. Data for initial rate patterns with D-, L-GpNA varied at different fixed levels of glygly were fitted to eq. […] Data for competitive and uncompetitive inhibition were fitted to eqs. 3 and 4. Data for the dependence of Vmax and Vmax/KD-GpNA on the concentration of activator were fitted using eq. 5 (25).
In eqs 1-6, Vmax are the initial and maximum rates, respectively, Ka and Kb are Michaelis constants for substrates A and B, respectively, and Kis and Kii are slope and intercept inhibition constants. In eq. 5, a is the value of Vmax or Vmax/KD-GpNA at zero activator/inhibitor, KID is the activation or inhibition constant, and KIN is a constant that causes the parameter to go to a constant value at infinite concentrations of X, the activator/inhibitor. The product a(KID/KIN) is the value of Vmax or Vmax/KD-GpNA at infinite activator/inhibitor (25). Data for noncompetitive inhibition were fitted to eq. 6. Data for the dependence of Vmax and Vmax/KD-GpNA on the concentration of activator were fitted using […].
as §4, with “hGGT” for “Human GGT1”, “described.” for “described (14).”, “reaction with L-GpNA.” for “reaction.”
D-GpNA Hydrolysis Assay: The assay was carried out as previously described. […] The reaction was initiated with the addition of 19 mU GGT as determined by the L-GpNA transpeptidation assay. The reaction was incubated at 37° C. and monitored continuously at 405 nm.

Human GGT1 (hGGT) [4] = target: T2, Human GGT1 (hGGT); test: L-GpNA Transpeptidation Assay with GlyGly as acceptor; type: biochemical; design: lacking the transmembrane domain; made in house; host or cells: Pichia pastoris; conditions: Table 2
Experimental: Transpeptidation Reaction: The same assay buffer was used for both the hydrolysis reaction and the transpeptidation reaction. The transpeptidation reaction included 40 mM glycylglycine (glygly, Sigma, St. Louis, Mo.) as the acceptor. […] The concentration of L-GpNA was 3 mM for experiments in which the concentration of glygly was varied. To initiate the transpeptidation reaction, 4 mU GGT were added.
1. […] 3 and 4. […] 5 (25).
L-GpNA Transpeptidation Assay: The assay has been described previously. […] The concentration of L-GpNA was 3 mM for experiments in which the concentration of GlyGly was varied. To initiate the transpeptidation reaction, 4 mU GGT were added.

[5] = system: hGGT expressed on the surface of 786-0 cells; test: Catabolism of extracellular GSH by 786-O cells; type: cell-based, human; conditions: 100 μM Compound 6, 20 μM GSH, one hour; 60 min
Experimental: as §1, §2

Question: Which “reduction of GSH metabolism in the media” value [1] does the source give for COc1ccc(Cc2nnc(NS(=O)(=O)c3cccc4ccccc34)s2)cc1 [Compound 6] here?
Answer: 59%

Question: What about the “fold less toxic (cytotoxic) than OU749” value (786-0 cells; LD50 ratio, 786-O cells) of the same molecule?
Answer: more than 16 fold

Question: What about the CC50 (786-0 cells; dividing 786-O cells, 72 hours, 4320 min, read-out: LD50 (the source's name)) of the same molecule?
Answer: 2090 ± 20 µM

Question: What about the CC50 at 72 h [2] of the same molecule?
Answer: ~2100 µM

Question: And the Ki (hGGT; GSH hydrolysis, Table 6, read-out: GSH Kii)?
Answer: 96 ± 2 µM

Question: What about the “fold more potent than OU749 in inhibiting GSH hydrolysis” value (hGGT; relative to OU749) of the same molecule?
Answer: 4 fold

Question: What about the Ki (Human GGT1 (hGGT) [3]; read-out: Hydrolysis D-GpNA Kii, D-GpNA substrate, Table 2) of the same molecule?
Answer: 161 ± 4.5 µM

Question: And the “fold less effective than OU749 in inhibiting hydrolysis of D-GpNA” value (Human GGT1 (hGGT) [3]; relative to OU749)?
Answer: 2-5 fold

Question: What about the Ki (Human GGT1 (hGGT) [4]; GlyGly varied, 3 mM L-GpNA, read-out: Transpeptidation GlyGly Kis) of the same molecule?
Answer: 45.7 ± 3.4 µM

Question: What about the Ki (Human GGT1 (hGGT) [4]; L-GpNA varied, 40 mM GlyGly, read-out: Transpeptidation L-GpNA Kii) of the same molecule?
Answer: 74.9 ± 3.6 µM

Question: What about the “block of hGGT catabolism of extracellular GSH” value [5] of the same molecule?
Answer: 51%
